Columns and labels:
[1] = tested on: Interleukin 18; test: Interleukin 18 (IL-18) induction in mouse blood serum; assay type: in vivo; conditions: BALB/C mice, subcutaneous single dose 1 mg alloferon/kg; serum 36 hours after administration
Method: Six samples were tested: • 1. Alloferon (Allokin-alfa, Lyophilisate for Solution for Subcutaneous Administration)—a reference product, • 2. Composition 1, • 3. Composition 2, • 4. […] 0.9% sodium chloride solution—control.
(§1) Samples 1, 2, 3, and 5 contained alloferon at the concentration of 1 mg/mL. The alloferon solution in Samples 1 and 5 was produced by dissolving the contents of an Allokin-alfa ampoule (1 mg of alloferon) in 1 mL of 0.9% sodium chloride solution. […] To determine the background content of IFN-γ and IL-18 in the subject animals' blood serum, a 0.9% sodium chloride solution was used.
(§2) The experiments enrolled BALB/C mice, females, weighing 16 to 22 grams, 18 weeks of age, divided into 6 groups of 15 individuals each. The samples were administered subcutaneously in a single dose of 1 mg of alloferon per 1 kg laboratory animal body weight. Sample 5 components were administered separately, one 15 minutes after the other.
In case of the control group, the confidence interval was calculated based on measurements of the same sample dilutions. For the experimental groups, the confidence interval was calculated based on three samples from three animals for each measuring point.

[2] = tested on: Interferon Gamma; test: Interferon gamma (IFN-γ) induction in mouse blood serum, solid phase immunoassay; assay type: in vivo; conditions: BALB/C mice, subcutaneous single dose 1 mg alloferon/kg; serum 3 hours after administration
Method: Furthermore, cytokine induction caused by using both components (alloferon and the zinc salt), where administered to a body separately in time, were determined. Six samples were tested: • 1. Alloferon (Allokin-alfa, Lyophilisate for Solution for Subcutaneous Administration)—a reference product, • 2. Composition 1, • 3. Composition 2, • 4. […] 0.9% sodium chloride solution—control.
as §1, §2

[3] = tested on: Herpes Simplex Virus Type 2 (HSV-2) Strain G (ATCC VR-734); test: Protective action in a model of herpetic infection in mice; assay type: in vivo, White outbred mice; conditions: HSV-2 vaginal infection, 1.25 mg/kg (Acyclovir 50 mg/kg); for N14, number of animal deaths in a group on the 14th day after infection: 20 mice per group; for N14, number of animal deaths in a group on the 14th day after infection / M, mortality rate: i.p. once a day for 3 days; for M, mortality rate / IP, index of protection: 14 days follow-up; for IP, index of protection: relative to control mortality 60.0%
Method: The developed compositions were assessed for their protective action on the basis of a herpetic infection model. The following reference products were used: 1/Allokin-alfa, Lyophilisate for Solution for Subcutaneous Administration, a medicinal product used to treat genital herpes, containing 1 mg of alloferon per ampoule; 2/Acyclovir, a medicinal product used in the conventional herpes therapy.
White outbred mice (females) weighing 16 to 20 g were received from Rappolovo Nursery (Leningrad Oblast) and maintained on a standard diet under controlled vivarium conditions. The animals for the experimental groups were selected on a random basis. The animals were divided into 5 groups of 20 animals each: four experimental groups in which the animals received injections of Composition 1, Composition 2, Allokin-alfa, and Acyclovir, respectively, and one control group in which the animals received injections of 0.9% sodium chloride solution.
The study was made with the use of Herpes Simplex Virus Type 2 (HSV-2) Strain G (ATCC VR-734). The infection was introduced vaginally. Vaginal epithelium was injured with the use of a vaginal smearing scarifier, after which the animals were infected with the virus at a dose of 1.7×10^5TCID50 in the amount of 30 mcL.
Allokin-alfa and Compositions 1 and 2 were administered to the animals intraperitoneally at a dose of 1.25 mg/kg once a day for 3 days after the infection introduction. Acyclovir was administered in accordance with the same scheme at a dose of 50 mg/kg. The control group received injections of 0.9% sodium chloride solution.
The animals were followed up for 14 days. Mortality in the control and experimental groups were recorded on a daily basis. Based on the data so obtained, mortality rates M (the ratio of animal deaths over 14 days to the total number of infected animals in a group) and the index of protection IP (the ratio between the difference of the control and experimental groups' mortality rates and the control group lethality rate) were calculated.

Compound: alloferon
- Interleukin 18, after 36 hours (mg/mL of blood serum) [1]: 360 ± 20 mg/mL of blood serum
- Interferon Gamma, after 3 hours (mg/mL of blood serum) [2]: 95 ± 16 mg/mL of blood serum
- N14, number of animal deaths in a group on the 14th day after infection [3]: 4
- M, mortality rate [3]: 20.0%
- IP, index of protection [3]: 66.7%

Compound: Nc1nc2c(ncn2COCCO)c(=O)[nH]1 [Acyclovir]
- N14, number of animal deaths in a group on the 14th day after infection [3]: 3
- M, mortality rate [3]: 15.0%
- IP, index of protection [3]: 75.0%

Compound: CC(=O)[O-].CC(=O)[O-].[Zn+2] [Zinc acetate]
- Interleukin 18, after 36 hours (mg/mL of blood serum) [1]: 194 ± 12 mg/mL of blood serum
- Interferon Gamma, after 3 hours (mg/mL of blood serum) [2]: 82 ± 8 mg/mL of blood serum
